The subject of experiment [1] is stomata of M82 and rop9 mutant cotyledons. The experiment in a line: Measurements of stomata aperture (width/length) in excised cotyledons. The class given is cell-based, Tomato (S. lycopersicum). On the procedure:
[…] assays were carried out as previously described (Puli, M. R. et al., J Exp Bot 63, 1349-1356, 2012). with the following modifications. Cotyledons were excised from M82 or rop9 mutants (10-15 days after sowing in soil) and were transferred immediately to stomatal opening buffer (10 mM MES-KOH, pH 7.0, 50 mM KCl) with or without ABA and treated for 3 h under light (110 to 120 μE m^−2 s^−1). Mock-treated controls were treated with 0.1% vol/vol ethanol. After 3 h, the abaxial epidermis of cotyledons was affixed to a glass slide with Telesis 5 silicone adhesive (Premiere Products) and bright-field images were taken with a Zeiss-LSM 780 NLO confocal microscope. For each biological replicate, width and length of 30 to 40 stomatal apertures were measured using Image J.

For experiment [2], the system named is ROS levels in guard cells. As to the kind of experiment: ROS measurements in guard cells (H2DCF fluorescence). In kind it is cell-based, Tomato (S. lycopersicum). On the procedure: Reactive oxygen species (ROS) levels in guard cells were monitored using a fluorescence-based assay with 2′,7′-dichlorofluorescien diacetate (H2DCF-DA). Abaxial epidermises of cotyledons were mounted on microscope slides with medical adhesive Telesis V and loaded with stomatal opening buffer with 50 μM H2DCF-DA for 30 min. Excess H2DCF-DA was removed by washing with water, and samples were loaded with 0.1% ethanol (mock) or 10 μM ABA in opening buffer. After 15 min, fluorescence images were collected using a Zeiss-LSM 780 NLO confocal microscope. Fluorescence measured from about thirty stomata of each biological replicate was determined using Image J.

The subject of the next experiment is M82 seeds. The experiment in a line: Seed germination assay on ABA-supplemented medium. The class given is in vivo, Tomato (S. lycopersicum). The conditions noted are these: 5 μM ABA, seven days. On the procedure:
Seeds of M82 and rop9 mutant plants (50 seeds per genotype) were surface sterilized for 2 min in ethanol followed by 20 min in 3% sodium hypochlorite, washed with excess of water (˜100 ml) and sown on 0.5×MS+1% agar plates (without sucrose) supplemented with 0.1% ethanol (mock) or 1 or 5 μM ABA (in 0.1% ethanol). Seeds were kept at 4° C. for 48 h for […] and moved to 25° C. in the dark for germination. The percentage of seeds germinated were determined after seven days.

The subject of experiment [3] is M82 and rop9 mutant seedlings. As to the kind of experiment: Primary root elongation assay. In kind it is in vivo, Tomato (S. lycopersicum). The settings on record: 1 or 5 μM ABA, 48 h. On the procedure:
Seven-day-old M82 and rop9 mutant seedlings were transferred to 0.5×MS+1% agar plates (without sucrose) supplemented with 0.1% ethanol (mock) or 1 or 5 μM ABA in 0.1% ethanol, and root lengths were marked. Root elongation was measured after 48 h.

The test system of experiment [4] is ROP activity in guard cells. As to the kind of experiment: Distribution of GFP-ICR1ΔN ROP activity probe in guard cells. In kind it is cell-based. The settings on record: Arabidopsis guard cells, 10 μM ABA, one hour. On the procedure:
Expression of GFP-ICR1ΔN was induced in 7-days old Arabidopsis seedlings with 5 μM β-estradiol dissolved in 99.5% DMSO. After 24 h of induction plants were treated with control (0.5× Murashige Skoog (MS) medium supplemented with 0.1% ETOH (control) or with 10 μM ABA dissolved in 0.1% ETOH. Analysis of GFP-ICR1ΔN distribution was carried out 1 h after treatments with control or ABA supplemented media using Zeiss LSM 780-NLO confocal microscope by excitation at 488 nm and emission spectrum at 501-546 nm using 40× and 63× water objectives. Image analyses were performed with ZEN 2012 Digital Imaging and Image J.
To follow the regulation of ROP activity in guard cells a fluorescent probe which is specifically expressed in guard cells was generated. The probe consists GFP fused to the […] C-terminal residues of ROP effector ICR1 (between residues 171-344) and was designated GFP-ICRΔN. […] To prevent possible steric hindrance of the ICRΔN moiety by GFP, a flexible linker consisting of 3 repeats of (Gly)4Ser (3×GGGGS) sequence were cloned between the ICRΔN and the GFP moieties. To prevent negative effects that could occur due to long-term expression of a ROP effector, the expression of the probe was induced by estradiol under regulation of the ROP11 promoter. […] The distribution of the probe between the membrane and cytoplasm reflected the degree of ROP activation. […]

Experiment [5] relates to P5CS1 and RAB18 expression. As to the kind of experiment: QPCR of ABA-responsive genes. The class given is cell-based, Tomato (S. lycopersicum). The conditions noted are these: M82, rop9-1 and rop9-4 cotyledons, 50 μM ABA. On the procedure: For expression of ABA induced genes, total RNA was extracted from mock-treated or ABA-treated cotyledons or from 2- to 3-week-old soil-grown plants using the RNeasy Plant Mini Kit (Qiagen). cDNAs were prepared using the High-capacity cDNA Reverse Transcription Kit (Applied Biosystems). Oligonucleotide primers for tubulin, P5CS1, and RAB18 were identical to those used by Nir et al. (2017, ibid). Expression was normalized to tubulin. Gene expression of the M82 mock-treated samples was set to 1, and then remaining samples were calculated proportionately. Data are the means (±SE) of three independent biological replicates.

Each structure is given as a SMILES string.

These results are taken from US12270041B2, “ROP—deficient plants having high water use efficiency” (RAMOT AT TEL-AVIV UNIVERSITY LTD., priority 2019, dated 2025).

For `c1ccc2c(c1)[I+]c1ccccc1-2` [DPI, Diphenyleneiodonium chloride], the “stomata aperture (width/length)” value in experiment [1] (M82 stomata, 5 μM DPI) was “had no effect”; in experiment [1] (rop9-1 and rop9-4 stomata, 5 μM DPI), “induced opening”. For the same compound, the H2DCF signal entry in experiment [2] (rop9-1 and rop9-4 guard cells treated with ABA, 5 μM DPI) is “decreased the H2DCF signal”.

Consider `CC1=CC(=O)CC(C)(C)[C@@]1(O)/C=C/C(C)=C\C(=O)O` [ABA, Abscisic acid], for which the “stomata aperture (width/length)” value in experiment [1] (M82, rop9-1 and rop9-4 cells, 10 μM ABA (positive control)) was “expected closing of stomata were observed”; in experiment [1] (M82 cotyledons, 1 or 10 μM ABA, 3 h under light) it was “induced stomata closure”. Also, the seed germination entry with M82 seeds is “significantly inhibited”. The H2DCF signal entry in experiment [2] (M82 guard cells, 10 μM ABA, 15 min) was “induced significant enhancement”; in experiment [2] (rop9-1 and rop9-4 guard cells, 10 μM ABA, 15 min) it was “significantly reduced the signal”. Further, the root elongation entry in experiment [3] is “inhibited to a similar extent in M82 and the rop9 mutants”. For the same compound, the “distribution of the probe between plasma membrane and cytoplasm” value in experiment [4] is “significant shift of the probe from the plasma membrane to the cytoplasm”. Moreover, in experiment [5], the “expression of P5CS1 and RAB18” value was “induced to a similar extent by ABA in both wild-type and mutant leaves”.
